Test results reported in patent publication US6911470B1, “Polyoxometalate compounds as antiviral agents” (priority 1988, dated 2005).
Values joined by “and” are separate entries in the source; they are usually repeats but may differ in a detail not shown here. Equal entries are not always repeated. Where two headings read alike, the source gives them in different places.

Legend:
[1] = system: human PBM cells; test: Cytotoxicity assay on uninfected PHA stimulated human PBMC (trypan blue); assay type: cell-based
Experimental: Cells. […] PBS), and pelleted at 300×g for 10 minutes. […] Cytotoxicity assay. The drugs were evaluated for their potential toxic effects on uninfected PHA stimulated human PBMC. Flasks were seeded so that the final cell concentration was 2×10^5 cells/ml. The cells were cultured with and without drug for 6 days, at which time aliquots were counted for cell viability, as assessed by the trypan blue dye-exclusion method using a hemacytometer. The median inhibitory concentration (IC50) was calculated using the median effect method (Chou et al, Elsevier-Biosoft, Elsevier Science Publishers, Cambridge, U.K., 1985; Chou et al, Adv. Enz. Regul. 22, 27-55, 1984). Median-effect method. Dose-effect relationships were analyzed by the median-effect equation (Chou et al, Adv. Enz. Regul. 22, 27-55, 1984). The slope (m) and median effective and inhibitory concentration (EC50 and IC50) values were obtained by using a computer program developed by Chou and Chou (Chou et al, Elsevier-Biosoft, Elsevier Science Publishers, Cambridge, U.K., 1985).

[2] = system: HIV-1 (strain LAV-1); test: microbe, parasite or virus in culture; assay type: cell-based
Experimental: Cells. Human peripheral blood mononuclear cells (PBMC) from healthy HIV-1 seronegative and hepatitis B virus seronegative donors were isolated by Ficoll-Hypaque discontinuous gradient centrifugation at 1,000×g for 30 minutes, washed twice in phosphate-buffered saline (pH 7.2; PBS), and pelleted at 300×g for 10 minutes. Before infection, the cells were stimulated by phytohemagglutinin (PHA) at a concentration of 6 μg/ml for three days in RPMI 1640 medium supplemented with 15% heat-inactivated fetal calf serum, 1.5 mM L-glutamine, penicillin (100 U/ml), streptomycin (100 μg/ml), and 4mM sodium bicarbonate buffer.
Viruses. HIV-1 (strain LAV-1) was obtained from Dr. P. Feorino (Centers for Disease Control, Atlanta, Ga.). The virus was propagated in human PBMC using RPMI 1640 medium, as described previously (McDougal et al, J. Immun. Meth. 76, 171-183, 1985) without PHA and supplemented with 7% v/v interleukin-2 (Advanced Biotechnologies, Silver Spring, Md.), 7 μg/ml DEAE-dextran (Pharmacia, Uppsala, Sweden), and 370 U/ml anti-human leucocyte (alpha) interferon (ICN, Lisle, Ill.). Virus obtained from cell-free culture supernatant was titrated and stored in aliquots at −80° C. until use.
Inhibition of virus replication in human PBMC. Uninfected PHA-stimulated human PBMC were uniformly distributed among 25 cm^2 flasks to give a 5 ml suspension containing about 2×10^6 cells/ml. Suitable dilutions of virus were added to infect the cultures. The mean reverse transcriptase (RT) activity of the inocula was 50,000 decompositions per min/ml corresponding to about 100 TCID50, as determined by Groopman et al. (Groopman et al, AIDS Res. Human Retro. 3, 71-85, 1987. The drugs at twice their final concentrations in 5 ml of RPMI 1640 medium, supplemented as described above, were added to the cultures. Uninfected and untreated PBMC at equivalent cell densities were grown in parallel as controls. The cultures were maintained in a humidified 5% CO2-95% air incubator at 37° C. for six days after infection, at which point all cultures were sampled for supernatant reverse transcriptase (RT) activity.
RT activity assay. Six ml supernatant from each culture was clarified from cells at 300×g for 10 minutes. Virus particles were pelleted from 5 ml samples at 40,000 rpm for 30 minutes using a Beckman 70.1 Ti rotor and suspended in 200 μl of virus disrupting buffer (50 mM Tris-Cl, pH 7.8, 800 mM NaCl, 20% glycerol, 0.5 mM phenylmethyl sulfonyl fluoride, and 0.5% Triton X-100).
The RT assay was performed in 96-well microtiter plates, as described by Spira et al. (Spira et al, J. Clin. Microbiol. 22, 97-99, 1987). The reaction mixture, which contained 50 mM Tris-Cl pH 7.8, 9 mM MgCl2, 5 mM dithiothreitol (DTT), 4.7 μg/ml (rA)n. (dT)12-18, 140 μM dATP, and 0.22 μM [^3H]TTP, specific activity 78.0 Ci/mmol, equivalent to 17,300 cpm/pmol; NEN Research Products, Boston, Mass., was added to each well. The sample (20 μl) was added to the reaction mixture which was then incubated at 37° C. for 2 hours. The reaction was terminated by the addition of 100 μl 10% trichloroacetic acid (TCA) containing 0.45 mM sodium pyrophosphate. The acid-insoluble nucleic acids which precipitated were collected on glass filters using a Skatron semi-automatic harvester. The filters were washed with 5% TCA and 70% ethanol, dried, and placed in scintillation vials. Four ml of scintillation fluid (Econofluor, NEN Research Products, Boston, Mass.) were added and the amount of radioactivity in each sample was determined using a Packard Tri-Carb liquid scintillation analyzer (model 2,000CA). The results were expressed in dpm/ml of original clarified supernatant.
Median-effect method. Dose-effect relationships were analyzed by the median-effect equation (Chou et al, Adv. Enz. Regul. 22, 27-55, 1984).

[3] = system: HSV-2; test: Plaque reduction assay for herpes simplex viruses in Vero cells; assay type: cell-based, herpes simplex virus type 2; details: Table 2; read-out: EC-50 HSV-2
Experimental: (§1) Cell culture assays for heroes simplex viruses. Mycoplasma-free Vero cells, obtained from Flow Laboratory (McLean, Va.), were used for the plaque assays. The methodologies for the plaque reduction and cytotoxicity assays have been previously described (Schinazi et al, Antimicrob. Agents Chemother. 22, 499-507, 1982). Median-effect method. Dose-effect relationships were analyzed by the median-effect equation (Chou et al, Adv. Enz. Regul. 22, 27-55, 1984). The slope (m) and median effective and inhibitory concentration (EC50 and IC50) values were obtained by using a computer program developed by Chou and Chou (Chou et al, Elsevier-Biosoft, Elsevier Science Publishers, Cambridge, U.K., 1985).

[4] = Comparison of toxicity of polyoxometalate compounds in mice (mortality, haematology); assay type: in vivo; details: BID × 6, 60 mkd i.p.; for Mortality: dead/total
Text: Comparison of Toxicity of Polyoxometalate Compounds Mice.
In vivo antiviral experiments. […] Treatment was continued daily for 6 or 10 days.

[5] = target: T1, HIV-1 reverse transcriptase (Human immunodeficiency virus type 1 group M subtype B, UniProt P04585); test: Evaluation of compounds on purified retroviral RT (cell-free, virion-derived); assay type: biochemical; details: Table 2; read-out: EC-50 Cell-Free RT (virion-derived)
T1 construct: HIV-1 RT was isolated from detergent disrupted virions; made in house; host or cells: virions pelleted from culture fluid of HIV-1-infected PHA-stimulated human PBMC; DEAE-cellulose and phosphocellulose chromatography
Experimental: Evaluation of compounds on purified retroviral RT. HIV-1 RT was isolated from detergent disrupted virions obtained from the cell-free supernatant of infected PHA-stimulated PBMC. The enzyme was purified by passing the extract through ion-exchange chromatography columns, as described previously (Eriksson et al, Antimicrob. Agents Chemother. 31, 600-604, 1977. Briefly, 750 ml of culture fluid harvested from HIV-1-infected PBMC were ultracentrifuged to pellet the virus. The pellet was dissolved in buffer A [50 mM Tris-HCl, pH 7.9/0.25% Nonidet P-40/5 mM dithiothreitol/20% (vol/vol) glycerol] containing 1 mM EDTA, and freeze-thawed four times. After clarification by centrifugation, the enzyme was partially purified from the supernatant by passing the extract through a DEAE-cellulose column (Whatman DE-52; 2.6×15 cm) previously equilibrated with buffer B (50 mM Tris-Cl, pH 7.9, 50 mM KCl, 1 mM EDTA, 1 mM dithiothreitol, 20% glycerol). Elution was performed using a linear gradient 50-500 mM KCl in buffer B. Fractions containing enzyme activity were dialyzed against buffer B and were further purified on a phosphocellulose column (Whatman P-11) using a linear KCl (50-500 mM) gradient in buffer B. The peak fractions were pooled and dialyzed against buffer B. The enzyme was characterized as HIV-1 reverse transcriptase based on its cation, salt, pH, and template requirements according to previous descriptions (Eriksson et al, Antimicrob. Agents Chemother. 31, 600-604, 1977). The standard reaction mixture was used to evaluate the inhibitory effect of the drugs, as previously described (Eriksson et al, Antimicrob. Agents Chemother. 31, 600-604, 1977). Briefly, the reaction mixtures (final volume 100 μl) contained 100 mM Tris-HCl, pH 8.0, 50 mM KCl, 2 mM MgCl2, 5 mM DTT, 400 ug/ml bovine serum albumin, 3 μg/ml (rA)·(dT)12-18 and 1 μM of [^3H]TTP (specific activity 82.3 Ci/mmol). The reactions were started by the addition of 10 μl of partially purified RT, incubated at 37° C. for 60 min., and processed as previously described (Eriksson et al, Antimicrob. Agents Chemother. 31, 600-604, 1977).
Median-effect method. Dose-effect relationships were analyzed by the median-effect equation (Chou et al, Adv. Enz. Regul. 22, 27-55, 1984). The slope (m) and median effective and inhibitory concentration (EC50 and IC50) values were obtained by using a computer program developed by Chou and Chou (Chou et al, Elsevier-Biosoft, Elsevier Science Publishers, Cambridge, U.K., 1985).

[6] = system: Vero cells; test: Cytotoxicity assay in Vero cells; assay type: cell-based; details: Table 2; >100 μM = Nontoxic; read-out: IC50 Toxicity Vero Cells
Text: Cell culture assays for heroes simplex viruses. Mycoplasma-free Vero cells, obtained from Flow Laboratory (McLean, Va.), were used for the plaque assays. The methodologies for the plaque reduction and cytotoxicity assays have been previously described (Schinazi et al, Antimicrob. Agents Chemother. 22, 499-507, 1982).

[7] = system: HSV-1; test: Plaque reduction assay for herpes simplex viruses in Vero cells; assay type: cell-based, herpes simplex virus type 1; details: Table 2; read-out: EC-50 HSV-1
Experimental: as §1

[8] = system: Friend, Spleen (EY-10); test: UV/XC assay for murine retroviruses in SC-1 cells; assay type: cell-based, murine retrovirus; details: Table 2; read-out: EC-50 Friend, Spleen (EY-10)
Experimental: UV/XC Assay for Murine Retroviruses Cells. Mouse embryo fibroblasts (SC-1) and XC cells were obtained from the American Type Culture Collection, Rockville, Md. The XC cell line was derived from a transplantable tumor induced in newborn White-Weston rats by the intramuscular injection of the Prague strain of Rous sarcoma virus. […] The cells were maintained in Eagle's minimum essential medium with Hanks balanced salt solution, supplemented with penicillin (100 U/ml), streptomycin (100 μg/ml), sodium bicarbonate (24 mM), Hepes (25 mM), and either 2 (maintenance) or 10 (growth) percent inactivated newborn or fetal calf serum.
Virus quantitation by UV-XC assay. The XC test (Rowe et al, Virology 42, 1136-1139, 1970) is a plaque-type of assay which tests for the presence and titer of B- and N-tropic murine leukemia viruses. Because these viruses produce no overt signs of infection of SC-1 mouse cells, it is necessary to overlay the virus producing culture with an indicator cell line, XC. The number of syncytia that are produced is a direct measure of the virus titer in FFU.
Six-well plates were seeded with 1×10^5 SC-1 mouse cells on the first day. On the following day the medium was removed and the inoculum (0.2 ml) was added in medium containing polybrene (4 μg/ml). For determining the antiviral activity of the compounds in culture, the virus dilution selected produced in untreated cultures about 80 foci per well. After 1 hour, the virus was removed and various concentrations of the drug were added. The plates were replenished with medium on the third and fifth days. The medium was removed on the eighth day and the cells exposed to UV irradiation (60 erg/mm^2 per sec) for 30 seconds. Medium containing 10^6 XC cells was then added to each plate. On the eleventh day, the plates were fixed with 10% buffered Formalin and stained with crystal violet. Comparison of the number of foci to those found in virus-infected cells receiving no drug allowed determination of whether a drug at a particular concentration was effective. Control cells without virus but receiving the drug provided an estimate of the drug's toxic effects as quantitated by using trypan blue staining.

[9] = Table 1, read-out: IC50 Toxicity in Human PBM Cells
[10] = Table 1, read-out: EC50 Anti-HIV-1 Activity in Human PBM Cells
[11] = Table 2, >100 μM = Nontoxic, read-out: IC50 Toxicity PBM Cells

Substance	IC50 [1, 9]	EC50 [2, 10]	other results
(NH4)14[NaP5W30O110] [Formula 17]	7.7 µM	0.32 µM	
(NH4)5[BW12O40] [(NH4)5BT]			EC50 [3]: > 10 µM; MDD ± St. Dev. (Mean day of death) [4]: 4.6 ± 0.89; Mortality [4]: 5/5 (100); EC50 [5]: 68.1 µM; IC50 [6]: > 100 µM; EC50 [7]: > 10 µM; EC50 ([2]; Table 2, several values per cell, some in brackets, read-out: EC-50 HIV-1 (LAV-1)): 6.69 µM and 11.6 µM
K10Cu4(H2O)2(PW9O34)2 [Formula 11]	> 100 µM	4.4 µM	
K10Co4(H2O)2(PW9O34)2 [Formula 12]	44 µM	0.8 µM	
(ArgH^+)n(H^+)5-nBT, where n=1-5 [(ARGH^+)nH^+(5−n)BT]			IC50 [1, 11]: 328 µM; EC50 [3]: 3.16 µM; MDD ± St. Dev. (Mean day of death) [4]: 8.8 ± 0.45; Mortality [4]: 5/5 (100); EC50 [5]: 25.4 µM; IC50 [6]: > 100 µM; EC50 [7]: 1.35 µM
H6ZnW12O40 [Formula 5]	12 µM	0.9 µM	
K4W4O10(O2)6 [Formula 21]	> 100 µM	> 50 µM	
Na6H2W12O40 [Formula 6]	> 100 µM	0.34 µM	
(LysH^+)q(H^+)5-qST, where q=1-5 [(LYSH^+)nH^+(4−n)ST]			IC50 [1, 11]: 2450 µM; EC50 [3]: < 1 µM; EC50 [5]: 20.5 µM; IC50 [6]: > 100 µM; EC50 [8]: 0.95 µM; EC50 [7]: 0.32 µM
K8SiW11O39 [Formula 9]	> 100 µM	0.15 µM	
Na7PW11O39 [Formula 8]	> 100 µM	10.8 µM	
(n-Bu4N)2W6O19 [Formula 15]	> 100 µM		
α-(n-Bu4N)4Mo8O26 [Formula 20]	> 100 µM	55.3 µM	
Na9HSiW9O34 [Formula 10]	> 100 µM	2.4 µM	
[(DMA)2H]3PMo12O40 [Formula 7]	> 100 µM	> 100 µM	
(n-Bu4N)2Mo6O19 [Formula 16]	> 100 µM	> 100 µM	
